Values quoted from earlier work as cited in patent US20230228656A1, “Functionalized Blood Sampling Device and Method for PEth Measurement” (CAPITAINER AB, priority 2020, published 2023).

System: PLD
Conditions: literature assessment; considered unsuitable for clinical use; cited from earlier work

SMILES: O=C(NCCN1CCC(n2c(=O)[nH]c3cc(Cl)ccc32)CC1)c1ccc(F)cc1 [halopemide]
- potency as PLD inhibitor: low potency

SMILES: O=C(NCCN1CCC(n2c(=O)[nH]c3ccccc32)CC1)c1cc2cc(F)ccc2[nH]1 [FIPI, 5-fluoro-2-indolyl-deschlorohalopemide]
- potency as PLD inhibitor: low potency
